A short description of assay [1]: GDH enzymatic activity of the chimeric proteins themselves. The format is biochemical. The protocol:
(§1) The GDH enzyme assay was performed as described by Yu et al.^20 Briefly, the 1.5-mL assay system consisted of 20 mM glucose, 0.6 mM phenazine methosulfate, 0.06 mM […], 10 mM MOPS (pH 7.0), and corresponding concentration of CaCl2 and enzyme. The enzymatic assay was performed at 25° C. by monitoring the reduction in the absorbance of […] at 600 nm.
We conjectured that dislocation of either of these residues will impact the catalysis and if carried out in a reversible fashion could utilized for controlling enzymes activity. To test this idea we inserted calmodulin (CaM) domain into GDH at the position 330 and produced the resulting CaM-GDH chimeric protein (SEQ ID NO: 10) in recombinant form. […] The activity of fully activated fusion represented 50% of activity of the wild-type protein. […] We therefore concluded that we successfully constructed a peptide regulated GDH biosensor module.
We next decided to test if the developed allosteric module can be used to construct a generic biosensor architecture. To this end we fused the developed CaM-GDH chimera C-terminally with rapamycin-binding FKBP domain (SEQ ID NO: 11) and produced the protein in recombinant form. […] We then constructed a fusion between FKBP binding partner FRB and CaM-BP that would associate with the former reporter molecule in the rapamycin dependent fashion. […]

Assay [2] deals with affinity clamp-GDH chimera (SEQ ID NO: 25). Kind of assay: OFF switch: inhibition of GDH activity of affinity clamp-GDH chimera by PDZ peptides. The format is biochemical. To be noted: 10 nM chimera; 1 μM strong or 2 μM weak peptide ligand.
Text: (§2) FIG. 5. Development and applications of an OFF switch biosensor based on GDH. […] (C) as in B but using the biosensor with the optimized linkers between the affinity clamp and the GDH, titrated with the increasing concentrations of the strong ligand peptide. (D) A dissociative biosensor architecture based on the developed affinity clamp-GDH biosensor. The star denotes the ligand either genetically fused or conjugated to the regulatory domain. (E) Exemplification of the design shown in D with a biosensor for IL18: the ligand is IL18 and the binder is IL18 binding protein. […] (G) As in D but using a binder that competitively associates with the receptor domain and is dislodged by the binding of the ligand.
as §1
So far all presented biosensor architectures were designed to increase the GDH activity upon association with the analyte. While this is a common strategy it creates potential problems when binding of two protein modules to a single small molecule is required. […]

Assay [3] has as its system affinity clamp-GDH IL18 binding protein chimera (SEQ ID NO: 37) with IL18-affinity-clamp ligand fusion (SEQ ID NO: 38). Nature of the assay: IL18 dissociative biosensor, GDH activity. The format is biochemical. The note with it: 10 nM SEQ ID NO: 37, 50 nM SEQ ID NO: 38; 0 to 2.5 μM IL18.
Text: as §2
The developed GDH —based OFF switch can be converted into biosensors of small molecules and biological polymers such as proteins and nucleic acids by fusing it to the appropriate binding domains (FIG. 5D) FIG. 5E depicts an IL18 biosensor that was generated incorporating a GDH-based OFF switch based on a fusion with IL18 binding protein, where the ligand is IL18 and the binder IL18 binding protein.

Assay [4] deals with PDZ domain binding peptide. To be noted: read-out: affinity for PDZ domain binding peptide; cited from earlier work.

Turning to “CaM-GDH chimeric protein: PQQ-GDH with calmodulin domain inserted at position 330, recombinant”, in assay [1] (absence of CaM-BP / activating ligand), the “GDH activity of the protein without activating ligand” value is recorded as “some GDH activity”. The “activity of fully activated fusion as share of activity of the wild-type protein” value in assay [1] (fully activated by CaM-BP) is listed as 50%.
For the molecule “RGSIDTWV (PDZ peptide (ePDZ ligand, high affinity)) [SEQ ID NO: 27]”, in assay [2], the “inhibition of GDH activity of affinity clamp-GDH chimera” value is given as “stronger inhibition of GDH activity than the weaker ligand”.

B1: IL18: cytokine analyte of the dissociative biosensor (protein)
chain: GYFGKLESKLSVIRNLNDQVLFIDQGNRPLFEDMTDSDSRDNAPRTIFIISMYKDSQPRGMAVTISVKSEKISTLSSENKIISFKEMNPPDNIKDTKSDIIFFQRSVPGHDNKMQFESSSYEGYFLASEKERDLFKLILKKEDELGDRSIMFTVQNEDG
modifications: Interleukin-18
notes: cytokine analyte of the dissociative biosensor
As for B1, in assay [3], the “detection by IL18 biosensor (GDH activity)” value is “dose-dependent detection”.

B2: affinity clamp: circularly permutated Erbin PDZ domain linked to engineered fibronectin type III (FN3) (protein)
chain: EDAPESPELGFSISGGVGGRGNPFRPDDDGIFVTRVQPEGPASKLLQPGDKIIQANGYSFINIEHGQAVSLLKTFQNTVELIIVREVGNGAKQEIRVRVEKDGGSGGVSSVPTNLEVVAATPTSLLISWDAYRELPVSYYRITYGETGGNSPVQEFTVPGSKSTATISGLKPGVDYTITVYAHYNYHYYSSPISINYRGPG
modifications: ePDZ domain
Regarding B2, in assay [4], the Kd was below 1 nM.

(Values after US20220333153A1, “ULTRASENSITIVE ELECTROCHEMICAL BIOSENSORS” (MOLECULAR WAREHOUSE, LTD., priority 2016, published 2022).)
